Read-outs that look alike come from different tables or passages of the source. Blank lines part the entries; values can stand above or below the compound they belong to.
How the values were obtained:
human sirtuin-1 (Sirt1) = molecular target: T1, human sirtuin-1 (Sirt1) (Homo sapiens, UniProt Q96EB6); assay: SIRT1 Fluorimetric Drug Discovery Kit, Sirt1 activation; assay type: biochemical; conditions: for Fold increase in sirt1 activity versus control: Example 1(a), 10 µM, trans-resveratrol as control (1.0); for remaining activity at 0.3 µM / remaining activity at 1 µM / remaining activity at 3 µM / remaining activity at 10 µM / remaining activity at 30 µM: read-out: Activity [% control]
T1 construct: purchased BioMol, Hamburg, Germany
T1 sequence (Q96EB6 1-747): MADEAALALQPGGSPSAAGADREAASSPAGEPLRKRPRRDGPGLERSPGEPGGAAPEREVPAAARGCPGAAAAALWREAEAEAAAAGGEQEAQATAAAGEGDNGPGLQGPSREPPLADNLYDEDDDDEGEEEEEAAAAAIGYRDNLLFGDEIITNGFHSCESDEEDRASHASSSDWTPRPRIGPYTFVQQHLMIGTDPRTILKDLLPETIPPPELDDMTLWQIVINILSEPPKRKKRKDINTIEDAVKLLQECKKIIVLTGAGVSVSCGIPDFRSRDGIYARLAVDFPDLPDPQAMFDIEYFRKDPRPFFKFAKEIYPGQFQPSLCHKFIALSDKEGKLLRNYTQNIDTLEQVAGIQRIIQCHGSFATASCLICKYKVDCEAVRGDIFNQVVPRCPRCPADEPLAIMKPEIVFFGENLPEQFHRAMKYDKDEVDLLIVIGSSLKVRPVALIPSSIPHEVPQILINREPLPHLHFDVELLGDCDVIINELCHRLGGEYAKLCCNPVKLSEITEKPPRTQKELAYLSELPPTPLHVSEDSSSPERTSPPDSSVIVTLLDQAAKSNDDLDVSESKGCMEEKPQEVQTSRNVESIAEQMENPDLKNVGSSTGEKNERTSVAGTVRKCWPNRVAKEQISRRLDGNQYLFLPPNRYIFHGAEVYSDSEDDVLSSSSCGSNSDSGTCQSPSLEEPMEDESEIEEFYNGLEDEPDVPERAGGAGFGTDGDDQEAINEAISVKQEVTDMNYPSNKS
Description: Compounds were tested for Sirt1 activation using the SIRT1 Fluorimetric Drug Discovery Kit (BioMol, Hamburg, Germany), Testing was carried out in duplicate following the manufacturer's instructions. Assay medium: 50mM Tris-HCl pH 8.0, 137 mM NaCl, 2.7 mM KCI, 1 mM MgCl2, 1 mg/ml bovine serum albumin (BSA). Stock solutions of the test compounds (10 mM in DMSO) were used, yielding a final concentration of 10 µM in the assay plate. Readout was obtained by measuring the fluorescence in a microtiter plate reader (excitation: 380 nm; detection: 440 nm).
The agonistic effect on Sirt1 was determined at different concentrations. For this purpose, the test compound stock solutions were diluted to yield concentrations of 0.3, 1, 3, 10 and 30 µM, respectively, in the assay, which was performed as described above. The compound of structure (I-1) was selected for this experiment.
The selectivity of the agonistic effect of the compound of formula (I-1) on different sirtuin isoforms was investigated. For this purpose, in vitro testing was performed as described in Example 1 using the respective SIRT1 Fluorimetric Drug Discovery Kit, SIRT2 Fluorimetric Drug Discovery Kit, and SIRT3 Fluorimetric Drug Discovery Kit (each from BioMol, Hamburg, Germany). […] The dose-response effect is slightly lesser on Sirt3. Table 3: Activity on Sirt1

[1] = system: 5'-AMP-activated protein kinase (AMPK); assay: Western blot analysis of AMPK phosphorylation in NHEK; assay type: cell-based, human; conditions: for AMPK phosphorylation [% Control] / P-AMPK / Ratio P-AMPK/ GAPDH: 48 h;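 as to P-AMPK: Chemiluminescence band density of P-AMPK measured with Multigauge software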
Sirt2 = molecular target: T2, Sirt2 (Homo sapiens, UniProt Q8IXJ6); assay: SIRT2 Fluorimetric Drug Discovery Kit, Sirt2 activation; assay type: biochemical; conditions: Example 2, Table 6, Sirt2
T2 construct: purchased BioMol, Hamburg, Germany
T2 sequence (Q8IXJ6 1-389): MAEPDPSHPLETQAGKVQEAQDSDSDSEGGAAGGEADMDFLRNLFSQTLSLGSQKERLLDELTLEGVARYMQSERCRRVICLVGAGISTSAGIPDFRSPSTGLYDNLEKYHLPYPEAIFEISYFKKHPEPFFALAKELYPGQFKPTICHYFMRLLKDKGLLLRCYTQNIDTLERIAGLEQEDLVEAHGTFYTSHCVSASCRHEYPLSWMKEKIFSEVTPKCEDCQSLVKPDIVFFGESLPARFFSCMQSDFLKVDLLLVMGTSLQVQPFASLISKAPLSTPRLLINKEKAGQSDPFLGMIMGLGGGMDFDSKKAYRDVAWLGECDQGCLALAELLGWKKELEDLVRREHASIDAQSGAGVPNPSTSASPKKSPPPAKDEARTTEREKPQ

[2] = system: normal human epidermal keratinocytes (NHEK); assay: MTT reduction assay, cytotoxicity in NHEK; assay type: cell-based; conditions: for viability: NHEK, MTT
Description: Culture conditions: 37 °C, 5 % CO2. Culture medium: Keratinocyte-SFM (serum-free medium) containing human recombinant epidermal growth factor (EGF 1-53) 0.25 ng/mL and bovine pituitary extract 25 µg/mL (Gibco; Cat. No. 17005-075), supplemented with gentamycin 25 µg/mL. Assay medium: Keratinocyte-SFM (Gibco; Cat. No. 10744-019), supplemented with gentamycin 25 µg/mL.
NHEK were seeded in 24-well plates (30.000 cells / well) and cultured in culture medium for 24 h and then in assay medium for another 24 h. Medium was then removed and replaced by assay medium containing the respective test compound or reference in defined concentrations.
Cytotoxicity was determined using the 3-(4,5-dimethylthiazol-2-yl)-2,5-diphenyltetrazoliumbromid (MTT) reduction assay (sse T. Mosmann (1983) J. Immunol. Methods. 65, pp. 55-63).

[3] = Experiment 1, Membrane 1, 1000 µM
[4] = Experiment 1, Membrane 2, 300 µM

Fold increase in sirt1 activity versus control (human sirtuin-1 (Sirt1)): 2.7
SMILES: CC(=O)c1c(O)cccc1/C=C/c1ccc(OC2OC(CO)C(O)C(O)C2O)cc1 (stereo not drawn) [(I-5)]

EC300 (Sirt2): >30 µM
remaining activity at 0.3 µM (human sirtuin-1 (Sirt1); Example 1(b), Table 2, 0.3 µM): 104%
remaining activity at 1 µM (human sirtuin-1 (Sirt1); Example 1(b), Table 2, 1.0 µM): 101%
remaining activity at 3 µM (human sirtuin-1 (Sirt1); Example 1(b), Table 2, 3.0 µM): 100%
remaining activity at 10 µM (human sirtuin-1 (Sirt1); Example 1(b), Table 2, 10.0 µM): 108%
remaining activity at 30 µM (human sirtuin-1 (Sirt1); Example 1(b), Table 2, 30.0 µM): 120%
EC300 (human sirtuin-1 (Sirt1); Example 1(b), concentration that gave 3-times the basal response of the enzyme): > 30 µM
remaining activity at 0.3 µM (human sirtuin-1 (Sirt1); Example 2, Table 3, 0.3 µM): 121%
remaining activity at 1 µM (human sirtuin-1 (Sirt1); Example 2, Table 3, 1.0 µM): 100%
remaining activity at 3 µM (human sirtuin-1 (Sirt1); Example 2, Table 3, 3.0 µM): 117%
remaining activity at 10 µM (human sirtuin-1 (Sirt1); Example 2, Table 3, 10.0 µM): 111%
remaining activity at 30 µM (human sirtuin-1 (Sirt1); Example 2, Table 3, 30.0 µM): 145%
EC300 (human sirtuin-1 (Sirt1); Example 2, Table 6, Sirt1): >30 µM
SMILES: Oc1ccc(/C=C/c2cc(O)cc(O)c2)cc1 [trans-resveratrol]
AMPK phosphorylation [% Control] [1, 4]: 722 % Control
P-AMPK [1, 4]: 1616 AU/mm^2
AMPK phosphorylation [% Control] ([1]; Experiment 2, 10 µM): 81 % Control
P-AMPK ([1]; Experiment 2, 10 µM): 228626 AU/mm^2
AMPK phosphorylation [% Control] ([1]; Experiment 2, 30 µM): 86 % Control
P-AMPK ([1]; Experiment 2, 30 µM): 211794 AU/mm^2
AMPK phosphorylation [% Control] ([1]; Experiment 2, 100 µM): 117 % Control
P-AMPK ([1]; Experiment 2, 100 µM): 327757 AU/mm^2
AMPK phosphorylation [% Control] ([1]; Experiment 2, 200 µM): 816 % Control
P-AMPK ([1]; Experiment 2, 200 µM): 2361575 AU/mm^2
AMPK phosphorylation [% Control] ([1]; Experiment 2, 300 µM): 21 % Control
P-AMPK ([1]; Experiment 2, 300 µM): 69290 AU/mm^2
dosage needed for similar enhancement of AMPK phosphorylation ([1]; effect similar to compound (I-1) at 30 µM): at least 200 µM
viability ([2]; 100 µM): 2%
viability ([2]; 300 µM): 43%
concentrations with cytotoxic effects on NHEK ([2]; under assay conditions): ≥ 100 µM

Further lines, the compound ahead of its results:

SMILES: O=C(O)c1c(O)cccc1/C=C/c1ccc(O)cc1 [(I-2)]
Fold increase in sirt1 activity versus control (human sirtuin-1 (Sirt1)): 4.8

SMILES: COC(=O)c1c(/C=C/c2ccc(OC)cc2)cccc1OC [(I-3)]
Fold increase in sirt1 activity versus control (human sirtuin-1 (Sirt1)): 1.1

SMILES: COc1cc(/C=C/c2cccc(O)c2C(=O)O)cc(OC)c1O [(I-4)]
Fold increase in sirt1 activity versus control (human sirtuin-1 (Sirt1)): 2.0

SMILES: NC(=O)c1ncn([C@@H]2O[C@H](CO)[C@@H](O)[C@H]2O)c1N [AICAR, 5-Amino-1-ß-D-ribofuranosyl-imidazole-4-carboxamide]
AMPK phosphorylation [% Control] [1, 3]: 482 % Control
P-AMPK [1, 3]: 1060 AU/mm^2
Ratio P-AMPK/ GAPDH [1, 3]: 2.05
AMPK phosphorylation [% Control] ([1]; Experiment 2, 1000 µM): 506 % Control
P-AMPK ([1]; Experiment 2, 1000 µM): 1377449 AU/mm^2
Ratio P-AMPK/ GAPDH ([1]; Experiment 2, 1000 µM): 0.572
